Patent publication US20160347852A1, “Combination therapy of an anti-CD20 antibody with a Bcl-2 inhibitor and a MDM2 inhibitor” (Hoffmann-La Roche Inc., priority 2015, published 2016)

Tests used:
[1] = test system: DOHH2 DLBCL xenografts (CD20+, p53 wt); assay: In vivo antitumor efficacy against DOHH2 DLBCL xenografts (Example 1); conditions: s.c. DOHH-2 xenografts, female SCID beige mice; for TGI % (tumor growth inhibition compared to control): RG7388 30 mg/kg oral, obinutuzumab 10 mg/kg ip once weekly, GDC-0199 100 mg/kg oral, treatment days 13-29
Protocol: The in vivo antitumor efficacy of the CD20 specific antibody obinutuzumab in combination with bcl-2 inhibitor GDC-0199 and MDM2 inhibitor RG7388 was evaluated against DOHH2 DLBCL xenografts (CD20+, p53 wt). As used herein, obinutuzumab is used synonymously with RO5072759 and B-HH6-B-KV1 GE. As used herein, said bcl-2 inhibitor GDC-0199 is the following chemical compound: 4-(4-{[2-(4-chlorophenyl)-4,4-dimethylcyclohex-1-en-1-yl]methyl}piperazin-1-yl)-2-(1H-pyrrolo[2,3-b]pyridin-5-yloxy)-N-({4-[(tetrahydro-2H-pyran-4-ylmethyl)amino]-3-[(trifluoromethyl)sulfonyl]phenyl}sulfonyl)benzamide or a salt or a polymorphic form thereof. As used herein, said MDM2 inhibitor RG7388 is the following chemical compound 4-{[(2R,3S,4R,5S)-4-(4-Chloro-2-fluoro-phenyl)-3-(3-chloro-2-fluoro-phenyl)-4-cyano-5-(2,2-dimethyl-propyl)-pyrrolidine-2-carbonyl]-amino}-3-methoxy-benzoic acid or a salt or a polymorphic form thereof.
CD20 antibody obinutuzumab was provided as stock solution from Roche, Basel, Switzerland. Antibody buffer included histidine. Antibody solution was diluted appropriately in buffer from stock prior injections. MDM2(4) inhibitor was provided as SDP formulation from Roche, Basel, Switzerland and resuspended prior to use. Bcl-2 inhibitor GDC-0199 was provided by GNE, SSF, USA and formulated prior to use.
The original DOHH-2 human B cell NHL cell line (DLBCL) was established at the NCI and purchased from ATCC (Manassas, Va., USA). Expansion of tumor cells for the transplantation was done by the TAP CompacT CellBase Cell Culture Roboter according to the protocol. Tumor cell line was routinely cultured in RPMI 1640 medium, FCS 10% and L-Glutamin 2 mM at 37° C. in a water-saturated atmosphere at 5% CO2. Culture passage was performed with trypsin/EDTA 1× splitting twice/week and passage 2 used for transplantation.
Female SCID beige mice, age 6-7 weeks at arrival, maintained under specific-pathogen-free condition with daily cycles of 12 h light/12 h darkness according to committed guidelines. Experimental study protocol was reviewed and approved by local government. After arrival animals were maintained in animal facility for one week to get accustomed to new environment and for observation. Continuous health monitoring was carried out on regular basis. Diet food and autoclaved water were provided ad libitum.
Animals were controlled daily for clinical symptoms and detection of adverse effects. For monitoring throughout the experiment body weight of animals was documented.
Animal treatment started after randomisation when median tumor size was about 200 mm^3. CD20 antibody obinutuzumab was administered as single agent and in combination at 10 mg/kg ip once weekly on days 13, 21 and 27. The corresponding vehicle was administered on the same days. MDM2(4) inhibitor RG7388 oral treatment at 30 mg/kg was done as single agent and in combination on days 13-17, 20-24 and 27-29. Finally, bcl-2 inhibitor GDC-0199 was given orally at 100 mg/kg on days 13-29 as single agent and in combination.
DOHH-2 human Diffuse Large B-cell Lymphoma (DLBCL) cells (CD20+, p53 wt) were s.c. inoculated with Matrigel onto female SCID beige mice. Tumor bearing mice were randomized 13 days later to the indicated study groups and compound treatment initiated. Tumor bearing animals were treated with vehicle control, with the MDM2(4) inhibitor RO5503781 (RG7388) at 30 mg/kg, with the anti-CD20 antibody obinutuzumab at 10 mg/kg or with bcl-2 inhibitor GDC-0199 (100 mg/kg) as single agent. Furthermore one study group received the triple combination of MDM2 inhibitor RG7388, CD20 antibody obinutuzumab and bcl-2 inhibitor GDC-0199. […] A similar efficacy was noticed after treatment with the bcl-2 inhibitor GDC-0199 (60% TGI), whereas the best efficacy as single agent was achieved after treatment with the anti-CD20 antibody obinutuzumab reaching nearly tumor stasis (TGI 90%).

[2] = test system: human Z138 mantle cell lymphoma cell line; assay: Antitumor activity of combined treatment, Z138 mantle cell lymphoma xenograft (Example 2); assay type: in vivo, SCID beige mice; conditions: for Tumor growth inhibition (TGI) on day 32: SCID beige mice, RO5072759 0.5 mg/kg i.p. q7d, GDC-0199 100 mg/kg p.o. daily, RG7388 100 then 80 mg/kg p.o. daily, day 32 after tumor cell inoculation; for Tumor-free animals on Day 125: number of animals out of 9-10 per group; for Median time to event (Days to reach TV of 1500 mm^3): time-to-event analysis until day 125; for Number of animals with reduced tumor growth or non-responder / Number of animals with tumor regrowth: until day 125
Protocol: Type II anti-CD20 antibody B-HH6-B-KV1 GE (=humanized B-Ly1, glycoengineered B-HH6-B-KV1, see WO 2005/044859 and WO 2007/031875) was provided as stock solution (c=9.4 mg/ml) from GlycArt, Schlieren, Switzerland, in histidine, trehalose and polysorbate 20 buffer. The antibody was diluted with PBS prior to in-vivo application. The Bcl-2 inhibitor GDC-0199 was obtained from Genentech Inc., CA, USA. MDM2(4) antagonist RG7388 (RO5503781) was provided by the Small Molecule Process Research and Development unit, Hoffmann-La Roche, Basel, Switzerland.
The human Z138 mantle cell lymphoma cell line was cultured in DMEM supplemented with 10% fetal bovine serum (PAA Laboratories, Austria) and 2 mM L-glutamine at 37° C. in a water-saturated atmosphere at 5% CO2. For in-vivo xenograft experiments the cells were co-injected with Matrigel.
Female SCID beige mice, age 4-5 weeks at arrival (purchased from Charles River, Sulzfeld, Germany), were maintained in the quarantine part of the animal facility for one week and afterwards under specific-pathogen-free condition with daily cycles of 12 h light/12 h darkness according to guidelines (GV-Solas; Felasa; TierschG). The experimental study protocol was reviewed and approved by Roche and the local government (Regierung von Oberbayern; registration no. 55.2-1-54-2531.2-26-09). Diet food (KLIBA NAFAG 3807) and water (filtered) were provided ad libitum.
Animals were monitored daily for clinical symptoms and detection of adverse effects. During the experiment the body weight of animals was checked two times a week and tumor volume was measured by caliper.
Animal treatment started at the day of randomization 18 days after tumor cell inoculation. Humanized type II anti-CD20 antibody RO5072759 B-HH6-B-KV1 GE (obinutuzumab) was administered as single agent i.p. q7d once weekly (day 18, 25, 32) for 3 weeks at a dosage of 0.5 mg/kg. The bcl-2 inhibitor GDC-0199 was given p.o. once daily (from day 18 to day 36) over 19 days at a dosage of 100 mg/kg. The MDM2 antagonist RG7388 (RO5503781) was given p.o. once daily over 5 days at a dosage of 100 mg/kg (active compound) from day 18 to day 22 and was administered over 12 days at a dosage of 80 mg/kg (active compound) from day 25 to day 36. There was no treatment on day 23 and 24. In the combination groups, RO5072759 B-HH6-B-KV1 GE, MDM2(4) and GDC-0199 were administered at the same dosages and on the same days. The corresponding vehicle was administered on the same days.
To elucidate the long term effects of the various treatments a time-to-event analysis was performed until day 125 after tumor cell inoculation.

COc1cc(C(=O)O)ccc1NC(=O)[C@@H]1N[C@@H](CC(C)(C)C)[C@](C#N)(c2ccc(Cl)cc2F)[C@H]1c1cccc(Cl)c1F [RG7388, 4-{[(2R,3S,4R,5S)-4-(4-Chloro-2-fluoro-phenyl)-3-(3-chloro-2-fluoro-phenyl)-4-cyano-5-(2,2-dimethyl-propyl)-pyrrolidine-2-carbonyl]-amino}-3-methoxy-benzoic acid]
npTCR [1]: 0.48 | TGI % (tumor growth inhibition compared to control) [1]: 56% | Tumor growth inhibition (TGI) on day 32 [2]: 67% | Tumor-free animals on Day 125 [2]: 0 | Median time to event (Days to reach TV of 1500 mm^3) [2]: 30 days | Number of animals with reduced tumor growth or non-responder [2]: 9 | Number of animals with tumor regrowth [2]: 0

CC1(C)CCC(CN2CCN(c3ccc(C(=O)NS(=O)(=O)c4ccc(NCC5CCOCC5)c([N+](=O)[O-])c4)c(Oc4cnc5[nH]ccc5c4)c3)CC2)=C(c2ccc(Cl)cc2)C1 [GDC-0199, 4-(4-{[2-(4-chlorophenyl)-4,4-dimethylcyclohex-1-en-1-yl]methyl}piperazin-1-yl)-N-({3-nitro-4-[(tetrahydro-2H-pyran-4-ylmethyl)amino]phenyl}sulfonyl)-2-(1H-pyrrolo[2,3-b]pyridin-5-yloxy)benzamide, reference compound]
npTCR [1]: 0.43 | TGI % (tumor growth inhibition compared to control) [1]: 60% | Tumor growth inhibition (TGI) on day 32 [2]: 53% | Tumor-free animals on Day 125 [2]: 0 | Median time to event (Days to reach TV of 1500 mm^3) [2]: 29 days | Number of animals with reduced tumor growth or non-responder [2]: 10 | Number of animals with tumor regrowth [2]: 0

obinutuzumab: afucosylated glyco-engineered humanized B-Ly1 type II anti-CD20 IgG1 antibody, VH SEQ ID NO:7 (B-HH6), VL SEQ ID NO:20 (B-KV1)
npTCR [1]: 0.17 | TGI % (tumor growth inhibition compared to control) [1]: 90% | Tumor growth inhibition (TGI) on day 32 [2]: 47% | Tumor-free animals on Day 125 [2]: 2 | Median time to event (Days to reach TV of 1500 mm^3) [2]: 28 days | Number of animals with reduced tumor growth or non-responder [2]: 8 | Number of animals with tumor regrowth [2]: 0
